{"source": "patent US20200253877A1", "about": "“GEMCABENE, PHARMACEUTICALLY ACCEPTABLE SALTS THEREOF, COMPOSITIONS THEREOF AND METHODS OF USE THEREFOR” (NEUROBO PHARMACEUTICALS, INC., priority 2018, published 2020)", "key": {"[1]": {"assay": "Solubility of gemcabene calcium salt hydrate Crystal Form 1 by solvent addition method", "format": "physicochemical", "details": "thermodynamic from solid", "procedure": "Approximately 20 mg of gemcabene calcium Crystal Form 1 was added to 5×2 mL vials. The solubility in 5 solvents was tested using a solvent addition method. Solvents included acetone, ethanol, ethyl acetate, t-butyl methyl ether (t-BME) and water. Solvent was added in 5 volume (100 μL) aliquots until either dissolution or 2 mL in total had been added. Between each addition, samples were heated to 60° C. (40° C. for acetone and t-BME). Any solids remaining after 24 hours at ambient were analyzed by X-ray powder diffraction (XRPD)."}, "[2]": {"assay": "Stability study of gemcabene calcium salt forms (XRPD form, HPLC/CAD purity)", "format": "physicochemical", "procedure": "The stability studies were carried out using storage conditions at a) 40° C. and 75% relative humidity (RH), b) at 80° C. and c) at ambient temperature (approximately 22° C.). After 7 days and 14 days, the samples were removed from the relevant storage conditions and initially analyzed by XRPD to identify any form changes. The samples were then analyzed by HPLC/CAD (high-performance liquid chromatography equipped with a charged aerosol detector) for purity, with all solid purity values given on a w/w % basis."}, "[3]": {"assay": "12-week placebo-controlled study in hypercholesterolemia patients on statins: safety and tolerability", "format": "in vivo", "details": "600 mg QD, 12 weeks", "procedure": "High-risk patients including some, but not all those with heterozygous familial hypercholesterolemia (HeFH) or atherosclerotic cardiovascular disease (ASCVD) on appropriate diet and stable statin therapy for at least 12 weeks and LDL-C ≥100 mg/dL (2.59 mmol/L) and triglycerides <500 mg/dL (5.65 mmol/L) were randomized into a 12-week, placebo-controlled, parallel-group, double-blind study to assess the efficacy of gemcabene calcium salt hydrate Crystal Form 1 (PSD90=52 μm) 600 mg (300-mg film-coated Tablet D×2) QD on LDL-C and other lipoproteins and hsCRP (high-sensitivity C-reactive protein). Safety and tolerability were also evaluated. The patients were stratified by high- or moderate-intensity statin therapy, with or without ezetimibe, with a target of 52 patients (26 patients on 600 mg gemcabene calcium salt hydrate Crystal Form 1 as administered by 2×film-coated Tablet D and 26 patients on placebo (“placebo”)) in each stratum. […] Mean baseline LDL-C for all patients was approximately 134 mg/dL (3.48 mmol/L) with most patients in the high-intensity statin stratum on atorvastatin and most patients in the moderate-intensity stratum on either simvastatin or atorvastatin.\n33 of 54 patients (61.1%) in the film-coated Tablet D group and 24 of 51 patients (47.1%) in the placebo group who reported at least one AE during the study. […]"}, "[4]": {"assay": "Steady-state gemcabene pharmacokinetics in familial hypercholesterolemia patients (300, 600, 900 mg/day)", "format": "in vivo, human", "details": "for Tlast: after 28 daily oral doses (film-coated Tablet D), FH patients, median", "procedure": "Additional (trough) samples were collected pre-dose on Day 14, Day 42, Day 70, and at the Early Termination Visit (if applicable). Plasma from these samples were analyzed for gemcabene concentrations and the data used for PK analysis. […] PK parameter estimates were derived by standard non-compartmental analysis methods using a validated installation of Phoenix® WinNonlin® version 6.4. The actual sampling times were used in the PK parameter calculations. All plasma concentrations reported as missing were treated as missing. […] The following gemcabene PK parameters were calculated for each patient from the plasma concentration-time data: AUClast and AUC(0-24) were calculated by numeric integration using the trapezoidal rule with linear up and log down interpolation. […] The individual patient and gemcabene concentration-time data are listed using the number of significant digits or decimal places provided by the bioanalytical lab and nominal sample times, and summarized descriptively in tabular formats by dose level, and visit (for trough samples)."}, "[5]": {"assay": "Steady-state plasma gemcabene pharmacokinetics (600 mg daily) in healthy female subjects", "format": "in vivo, human", "procedure": "An open-label, two-sequence, cross-over study to assess the steady-state effects of gemcabene calcium on the single-dose pharmacokinetics (PK) of oral contraceptive tablets in healthy female subjects was conducted with 300 mg tablets containing gemcabene calcium salt hydrate Crystal Form 1 having PSD90 of 52 μm (film-coated Tablet F).\nThe population for this study was generally healthy, adult female subjects of childbearing potential (≥18 to ≤35 years of age). This population supports the overall objective of the study to evaluate the effect of 600 mg of gemcabene calcium salt hydrate Crystal Form 1 having PSD90 of 52 μm at steady-state on the PK of a single dose of ON 1/35 (Ortho Novum 1/35; combined ethinyl estradiol/norethindrone oral contraceptive). The primary objective of this study was to assess the effect of daily 600 mg of gemcabene calcium salt hydrate Crystal Form 1 having PSD90 of 52 μm at steady-state on the pharmacokinetics (PK) of ON 1/35. The secondary objectives of this study were to assess the safety and tolerability of daily gemcabene 600 mg in combination with a single-dose ON 1/35 and to assess the steady-state PK of 600 mg of gemcabene calcium salt hydrate Crystal Form 1 having PSD90 of 52 μm (film-coated Tablet F×2). […]"}, "[6]": {"details": "300-900 mg/day, dose proportionality"}, "[7]": {"details": "dose range 300 mg/day to 900 mg/day"}}}
{"smiles": "CC(C)(CCCCOCCCCC(C)(C)C(=O)O)C(=O)O.[Ca]", "note": "[6-(5-Carboxy-5-methyl-hexyloxy)-2,2-dimethylhexanoic acid calcium]", "values": [{"measurement": "solubility", "setting": "[1]; organic solvent or mixture, Acetone, heated to 40° C. between additions", "value": "< 10000", "unit": "µg/mL"}, {"measurement": "solubility", "setting": "[1]; organic solvent or mixture, Ethanol, heated to 60° C. between additions", "value": "< 10000", "unit": "µg/mL"}, {"measurement": "solubility", "setting": "[1]; organic solvent or mixture, Ethyl Acetate, heated to 60° C. between additions", "value": "< 10000", "unit": "µg/mL"}, {"measurement": "solubility", "setting": "[1]; organic solvent or mixture, t-Butyl Methyl Ether (t-BME), heated to 40° C. between additions", "value": "< 10000", "unit": "µg/mL"}, {"measurement": "solubility", "setting": "[1]; Water, heated to 60° C. between additions", "value": 33000, "unit": "µg/mL"}, {"measurement": "change in form (XRPD)", "setting": "[2]; 2-week study, 40° C./75% RH, 80° C. and ambient", "value": "No change in the form"}, {"measurement": "Form (XRPD)", "setting": "[2]; 40° C./75% RH, 1 Week", "value": "Form 1"}, {"measurement": "Purity", "setting": "[2]; 40° C./75% RH, 1 Week", "value": 80.8, "unit": "%"}, {"measurement": "Form (XRPD)", "setting": "[2]; 40° C./75% RH, 2 Weeks", "value": "Form 1"}, {"measurement": "Purity", "setting": "[2]; 40° C./75% RH, 2 Weeks", "value": 84.2, "unit": "%"}, {"measurement": "Form (XRPD)", "setting": "[2]; 80° C., 1 Week", "value": "Form 1"}, {"measurement": "Purity", "setting": "[2]; 80° C., 1 Week", "value": 80.6, "unit": "%"}, {"measurement": "Form (XRPD)", "setting": "[2]; 80° C., 2 Weeks", "value": "Form 1"}, {"measurement": "Purity", "setting": "[2]; 80° C., 2 Weeks", "value": 83.9, "unit": "%"}, {"measurement": "Form (XRPD)", "setting": "[2]; Ambient, 1 Week", "value": "Form 1"}, {"measurement": "Purity", "setting": "[2]; Ambient, 1 Week", "value": 80.7, "unit": "%"}, {"measurement": "Form (XRPD)", "setting": "[2]; Ambient, 2 Weeks", "value": "Form 1"}, {"measurement": "Purity", "setting": "[2]; Ambient, 2 Weeks", "value": 84.6, "unit": "%"}, {"measurement": "purity (HPLC/CAD) compared to the starting form", "setting": "[2]; after 2 weeks storage, all 3 storage conditions", "value": "drop in purity"}, {"measurement": "Starting Purity", "setting": "[2]; before storage, HPLC/CAD, w/w %", "value": 87.5, "unit": "%"}, {"measurement": "serious adverse events and deaths", "setting": "[3]", "value": "no serious adverse events (AEs) and no deaths"}]}
{"smiles": "CC(C)(CCCCOCCCCC(C)(C)C(=O)O)C(=O)O", "note": "[gemcabene, 6-(5-carboxy-5-methyl-hexyloxy)-2,2-dimethyl-hexanoic acid]", "values": [{"measurement": "Tlast", "setting": "[4]; 300 mg/day, n = 8", "value": 25.2, "unit": "h"}, {"measurement": "Tlast", "setting": "[4]; 600 mg/day, n = 8", "value": 24.6, "unit": "h"}, {"measurement": "Tlast", "setting": "[4]; 900 mg/day, n = 7", "value": 23.8, "unit": "h"}, {"measurement": "upper limit of the 95% CI of slope, log AUClast vs log dose", "setting": "[4]; [6]", "value": 0.9993}, {"measurement": "upper limit of the 95% CI of slope, log Cmax vs log dose", "setting": "[4]; [6]", "value": 0.9767}, {"measurement": "time to attain steady state", "setting": "[4]; daily dosing, individual trough concentrations", "value": "≤ 14", "unit": "days"}, {"measurement": "AUC(0-24) dose proportionality", "setting": "[4]; [7]", "value": "increased dose proportionally"}, {"measurement": "Cmax dose proportionality", "setting": "[4]; [7]", "value": "slightly less than dose proportional"}, {"measurement": "mean Cmin", "setting": "[5]", "value": 102.68, "unit": "µg/mL"}]}
